Data from the supplement of paper PMC10307832.

Assays:
Assay in all cases: relative viability (nuclei count vs DMSO), 5 days (fraction); higher = more cells survive
[1] = compound: Nc1ncn([C@H]2C[C@H](O)[C@@H](CO)O2)c(=O)n1 [Decitabine] + Cc1nc(Nc2ncc(C(=O)Nc3c(C)cccc3Cl)s2)cc(N2CCN(CCO)CC2)n1 [Dasatinib] (partner 0.075 µM)
How it was run: (§1)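 For relative viability, nuclei counts in treated wells were divided by those in vehicle wells. Lung cancer cell lines had been pin-tool dosed in 1536-well plates the day after seeding and cultured for 5 days, then fixed and stained in one step (final 0.05% Triton X-100, 1% formaldehyde, 1 ug/ml Hoechst) and imaged at 4×. Doses were one drug alone or a fixed anchor-drug dose plus five library-drug doses (not always all listed) in √10 steps, and values are duplicate-plate medians.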

[2] = compound: Nc1ncn([C@H]2C[C@H](O)[C@@H](CO)O2)c(=O)n1 [Decitabine] + NC(=O)Nc1cc(-c2cccc(F)c2)sc1C(=O)N[C@H]1CCCNC1 [AZD7762] (partner 0.2 µM)
How it was run: as §1

[3] = compound: Nc1ncn([C@H]2C[C@H](O)[C@@H](CO)O2)c(=O)n1 [Decitabine] + O=C(CCCCCCC(=O)Nc1ccccc1)NO [Vorinostat] (partner 1 µM)
How it was run: as §1

[4] = compound: O=C(C[C@H]1NCCC[C@@H]1O)Cn1cnc2cc(Br)c(Cl)cc2c1=O (racemic) [Halofuginone] + CC(=O)c1c(C)c2cnc(Nc3ccc(N4CCNCC4)cn3)nc2n(C2CCCC2)c1=O [Palbociclib] (partner 0.5 µM)
How it was run: as §1

Cell Line	relative viability ([1]; first compound 0.04 µM)	relative viability ([1]; first compound 0.1265 µM)	relative viability ([1]; first compound 0.4 µM)	relative viability ([1]; first compound 1.265 µM)	relative viability ([1]; first compound 4 µM)	relative viability ([2]; first compound 0.04 µM)	relative viability ([2]; first compound 0.1265 µM)	relative viability ([2]; first compound 0.4 µM)	relative viability ([2]; first compound 1.265 µM)	relative viability ([2]; first compound 4 µM)	relative viability ([3]; first compound 0.04 µM)	relative viability ([3]; first compound 0.1265 µM)	relative viability ([3]; first compound 0.4 µM)	relative viability ([3]; first compound 1.265 µM)	relative viability ([3]; first compound 4 µM)	relative viability ([4]; first compound 0.001 µM)	relative viability ([4]; first compound 0.003162 µM)	relative viability ([4]; first compound 0.01 µM)	relative viability ([4]; first compound 0.03162 µM)	relative viability ([4]; first compound 0.1 µM)
NCI-H1651	0.418	0.506	0.398	0.341	0.385	0.43	0.446	0.336	0.341	0.355	0.478	0.456	0.483	0.296	0.407	0.523	0.515	0.51	0.513	0.509
NCI-H1666	0.773	0.735	0.684	0.636	0.617	0.826	0.872	0.696	0.787	0.763	0.943	1.05	0.922	0.894	0.836	0.668	0.683	0.641	0.676	0.645
NCI-H1734	0.433	0.378	0.423	0.298	0.219	0.417	0.51	0.501	0.209	0.209	0.698	0.685	0.48	0.297	0.306	0.338	0.361	0.33	0.32	0.2
NCI-H1755	0.47	0.467	0.422	0.365	0.306	0.634	0.463	0.56	0.467	0.419	0.637	0.608	0.611	0.403	0.429	0.436	0.479	0.421	0.491	0.418
NCI-H1793	0.347	0.394	0.382	0.246	0.239	0.37	0.591	0.258	0.154	0.169	0.462	0.631	0.552	0.382	0.325	0.271	0.348	0.292	0.335	0.196
NCI-H1915	0.253	0.228	0.189	0.2	0.193	0.296	0.266	0.217	0.195	0.201	0.263	0.235	0.206	0.158	0.155	0.571	0.514	0.523	0.472	0.422
NCI-H1944	0.201	0.242	0.177	0.2	0.211	0.331	0.289	0.29	0.218	0.231	0.505	0.486	0.424	0.265	0.299	0.286	0.362	0.313	0.357	0.293
NCI-H1975	0.325	0.258	0.197	0.194	0.15	0.451	0.451	0.441	0.465	0.403	0.508	0.412	0.375	0.281	0.291	0.66	0.547	0.553	0.42	0.157
NCI-H1993	0.542	0.57	0.608	0.484	0.55	0.654	0.796	0.644	0.641	0.703	0.628	0.737	0.614	0.399	0.487	0.626	0.519	0.637	0.617	0.454
NCI-H2085	0.25	0.256	0.285	0.279	0.204	0.757	0.852	0.655	0.527	0.615	0.65	0.657	0.591	0.443	0.431	0.521	0.461	0.458	0.461	0.487
NCI-H2087	0.523	0.452	0.358	0.246	0.23	0.853	0.719	0.58	0.493	0.499	0.268	0.285	0.301	0.304	0.208	0.254	0.22	0.189	0.22	0.2
NCI-H2126	0.603	0.547	0.429	0.421	0.376	0.874	0.938	0.577	0.713	0.591	0.675	0.678	0.477	0.488	0.386	0.362	0.344	0.347	0.346	0.354
NCI-H2170	0.528	0.502	0.461	0.269	0.228	0.412	0.52	0.554	0.268	0.245	0.582	0.568	0.414	0.28	0.257	0.382	0.392	0.358	0.401	0.373
NCI-H2342	0.329	0.365	0.308	0.295	0.303	0.507	0.593	0.517	0.457	0.319	0.755	0.798	0.728	0.542	0.522	0.503	0.578	0.511	0.512	0.527
NCI-H2347	0.295	0.315	0.351	0.283	0.286	0.734	0.67	0.69	0.398	0.433	0.522	0.542	0.521	0.379	0.424	0.44	0.453	0.513	0.438	0.332
NCI-H2405	0.209	0.194	0.286	0.204	0.203	0.814	0.902	0.977	0.501	0.431	0.765	0.878	0.894	0.561	0.395	0.573	0.565	0.527	0.498	0.424
